Assay results from patent EP4717267A1, “SYNERGISTIC COMBINATION FOR TREATING CANCER” (FUNDACION UNIVERSITARIA SAN ANTONIO (UCAM), priority 2023, dated 2024).

How the values were obtained:
MCF-7 cells = assay: MTT colorimetric cytotoxicity assay on MCF-7 cells, single drugs and two-drug combinations, with combination index (CompuSyn); format: cell-based, Human; conditions: for type of drug interaction with Doxorubicin (combination index): MCF-7; for effect of the analog in combination with Doxorubicin on the anticancer activity of Doxorubicin: MCF-7, combination with Doxorubicin; for IC50: Homo sapiens, MCF7, read-out: IC50 concentration, which inhibits MCF-7 cell proliferation by 50% compared to control cells, single drug, MCF-7, 72 hours, MTT
Method: (§1) IC50 values were calculated using GraphPad Prism software.
(§2) This equation defines "Synergism" (CI < 1), "Additive effect" (CI = 1) and "Antagonism" (CI > 1).

A549 cells = assay: MTT colorimetric cytotoxicity assay on A549 cells, single drugs and two-drug combinations, with combination index (CompuSyn); format: cell-based; conditions: Homo sapiens, A549, 72 hours, read-out: IC50 value for cancer cell survival
Method: The cancer cell lines (MCF-7, A549 and U-87MG) were cultured as monolayers in Dulbecco's modified Eagle's medium supplemented with 10% (v/v) fetal bovine serum and 1% (v/v) penicillin/streptomycin mixture (10,000 U/mL penicillin and 10 mg/mL streptomycin) in a 100% humidified atmosphere of 5% CO2 and 95% air at 37 °C. […] Cell cultures were kept in the exponential growth phase by regularly passaging cells three times a week with 0.25% trypsin/EDTA mixture.
The cytotoxic activity of the test compounds against cancer cell lines was tested using the standard MTT (3-(4,5-dimethylthiazol-2-yl)-2,5-diphenyltetrazolium bromide) colorimetric assay. […] Briefly, exponentially proliferating cells were seeded into each well of a 96-well microplate (about 5×10^3 cells/well). After 24 hours, test compounds at various concentrations were added to the respective wells, and the cells were incubated for another 72 hours. After incubating the cells with the test compounds, the medium was removed and MTT solution with a final concentration of 0.5 mg/mL was added. After 4 hours of incubation, the MTT solution was replaced with DMSO to dissolve the resulting violet formazan crystals in metabolically viable cells. Plates were gently shaken at room temperature until the formazan was completely dissolved and read at 540 nm using a microplate reader. […] The experiment was repeated at least three times under the same conditions. […] IC50 values were calculated using GraphPad Prism software. […] The test drugs were administered to the cells at the same time.
The combination index (CI) method - a dimensionless quantity used to determine and quantify the type of drug interaction - for binary combinations was calculated using CompuSyn software based on the equation: (CI)x = ((D)1)/((Dx)1) + ((D)2)/((Dx)2) = ((D)1)/((Dm)1 ([(fa)/((1−fa))])^((1)/(m1))) + ((D)2)/((Dm)2 ([(fa)/((1−fa))])^((1)/(m2))) [formula] […]
All data are expressed as mean±standard deviation (SD) and presented as a percentage of control (untreated cells) taken as 100%, n=3 (or more). […]

U-87MG cells = assay: MTT colorimetric cytotoxicity assay on U-87MG cells, single drugs and two-drug combinations, with combination index (CompuSyn); format: cell-based, Human; conditions: for IC50: Homo sapiens, single drug, U-87MG, 72 hours, MTT, read-out: IC50 value (cell survival)
Method: Glimepiride and its analogs were first prepared as a stock solution in DMSO, and then the drugs were dissolved fresh in culture medium enriched with Tween 80 (final concentration 0.05%).
Human cancer cells (MCF-7, A549 and U-87MG) and normal endothelial cells (HMEC-1) were obtained from American Type Cell Culture (Rockville, MD). The cancer cell lines (MCF-7, A549 and U-87MG) were cultured as monolayers in Dulbecco's modified Eagle's medium supplemented with 10% (v/v) fetal bovine serum and 1% (v/v) penicillin/streptomycin mixture (10,000 U/mL penicillin and 10 mg/mL streptomycin) in a 100% humidified atmosphere of 5% CO2 and 95% air at 37 °C. Normal endothelial cells (HMEC-1) were cultured in MCDB 131 medium supplemented with 10% (v/v) fetal bovine serum, 10 ng/mL EGF, 1 µg/mL hydrocortisone and 1% (v/v) penicillin/streptomycin solution, in a humidified atmosphere of 5% CO2 and 95% air at 37 °C. Cell cultures were kept in the exponential growth phase by regularly passaging cells three times a week with 0.25% trypsin/EDTA mixture.
as §1, §2
All data are expressed as mean±standard deviation (SD) and presented as a percentage of control (untreated cells) taken as 100%, n=3 (or more). Sample size was estimated for Type I and Type II statistical errors of […], respectively. Normality of the data was checked with the Shapiro-Wilk test, and the homogeneity of variance was checked with the Levene or Brown-Forsythe test. The significance of differences between pairs of means was estimated using one-way ANOVA and Tukey's post-hoc test. For each analysis, the post-hoc power of the used tests was checked. Statistical power below 80% was considered a null result, and constructive conclusions were not made. All statistics were calculated using […] (StatSoft, USA) or GraphPad Prism software.

[1] = system: MDA-MB-231 breast carcinoma cells; conditions: Glibenclamide alone; inhibits G1-S phase progression without cell death or differentiation; cited from earlier work
[2] = Glimepiride analog 100-500 µM in combination with Doxorubicin 0.225, 0.450, 0.900 µM

Compound	type of drug interaction with Doxorubicin (combination index) (MCF-7 cells; [2])	effect of the analog in combination with Doxorubicin on the anticancer activity of Doxorubicin (MCF-7 cells)	also measured
COc1ccc2c(c1)C(=O)N(CCc1ccc(S(=O)(=O)NC(=O)NC3CCCCC3)cc1)C(=O)C2(C)C [Gliquidone]	not every combination of concentrations of Doxorubicin and Gliquidone produce a synergistic effect	beneficial effect	type of drug interaction with Doxorubicin (combination index) (MCF-7 cells; 100 µM analog in combination with Doxorubicin 0.225, 0.450, 0.900 µM): additive effect or slight antagonism; type of drug interaction with Doxorubicin (combination index) (MCF-7 cells; other dose combinations (analog above 100 µM) with Doxorubicin): synergistic effects
Cc1cnc(C(=O)NCCc2ccc(S(=O)(=O)NC(=O)NC3CCCCC3)cc2)cn1 [Glipizide, N-[2-[4-(cyclohexylcarbamoylsulfamoyl)phenyl]ethyl]-5-methylpyrazine-2-carboxamide]		beneficial effect	
CCCCNC(=O)NS(=O)(=O)c1ccc(N)cc1 [Carbutamide]		beneficial effect	
CCCNC(=O)NS(=O)(=O)c1ccc(Cl)cc1 [Chlorpropamide, 1-(4-chlorophenyl)sulfonyl-3-propylurea]	strong or very strong synergy	beneficial effect	
Cc1ccc(S(=O)(=O)NC(=O)NN2CCCCCC2)cc1 [Tolazamide, 1-(azepan-1-yl)-3-(4-methylphenyl)sulfonylurea]	strong or very strong synergy	beneficial effect	
CC(=O)O[C@@]12CO[C@@H]1C[C@H](O)[C@@]1(C)C(=O)[C@H](O)C3=C(C)[C@@H](OC(=O)[C@H](O)[C@@H](NC(=O)OC(C)(C)C)c4ccccc4)C[C@@](O)([C@@H](OC(=O)c4ccccc4)[C@H]21)C3(C)C [DOCE, [(1S,2S,3R,4S,7R,9S,10S,12R,15S)-4-acetyloxy-1,9,12 trihydroxy-15-[(2R,3S)-2-hydroxy-3-[(2-methylpropan-2-yl)oxycarbonylamino]-3 phenylpropanoyl]oxy-10,14,17,17-tetramethyl-11-oxo-6 oxatetracyclo[11.3.1.03,1 0.04, 7]heptadec-13-en-2-yl] benzoate]			IC50 (A549 cells): 150 nM; IC50 (U-87MG cells): 80 nM; IC50 (MCF-7 cells): 240 nM
Cc1ccc(S(=O)(=O)NC(=O)NN2CC3CCCC3C2)cc1 (centres unmarked) [Gliclazide, 1-(3,3a,4,5,6,6a-hexahydro-1H-cyclopenta[c]pyrrol-2-yl)-3-(4-methylphenyl)sulfonylurea]	strong or very strong synergy	beneficial effect	
COc1cccc2c1C(=O)c1c(O)c3c(c(O)c1C2=O)C[C@@](O)(C(=O)CO)C[C@@H]3O[C@H]1C[C@H](N)[C@H](O)[C@H](C)O1 [Doxorubicin, (7S,9S)-7-[(2R,4S,5S,6S)-4-amino-5-hydroxy-6 methyloxan-2-yl]oxy-6,9,11-trihydroxy-9-(2-hydroxyacetyl)-4-methoxy-8,10-dihydro-7H tetracene-5,12-dione]			U-87MG cell survival (U-87MG cells; 0.52 µM Doxorubicin alone): 75.6%
CCC1=C(C)CN(C(=O)NCCc2ccc(S(=O)(=O)NC(=O)NC3CCC(C)CC3)cc2)C1=O (centres unmarked) [Glimepiride, 4-ethyl-3-methyl-N-[2-[4-[(4-methylcyclohexyl)carbamoylsulfamoyl]phenyl]ethyl]-5-oxo-2H-pyrrole-1-carboxamide]			IC50 (A549 cells): 389000 ± 4490 nM; IC50 (U-87MG cells): 149000 ± 12200 nM; IC50 (MCF-7 cells): 186000 ± 7020 nM
CCCCNC(=O)NS(=O)(=O)c1ccc(C)cc1 [Tolbutamide, 1-butyl-3-(4-methylphenyl)sulfonylurea]		beneficial effect	
COc1ccc(Cl)cc1C(=O)NCCc1ccc(S(=O)(=O)NC(=O)NC2CCCCC2)cc1 [Glibenclamide]	strong or very strong synergy	beneficial effect	effect in MDA-MB-231 cells [1]: cytostatic effect
CCCCCOC(=O)Nc1nc(=O)n([C@@H]2O[C@H](C)[C@@H](O)[C@H]2O)cc1F [CAPE, pentyl N-[1-[(2R,3R,4S,5R)-3,4-dihydroxy-5-methyloxolan-2-yl]-5-fluoro-2-oxopyrimidin-4-yl]carbamate]			IC50 (A549 cells): 60 nM; IC50 (U-87MG cells): 40 nM; IC50 (MCF-7 cells): 180 nM
